One compound from patent publication US9301911B2, “Composition comprising tauroursodeoxycholic acid” (priority 2012, dated 2016) can be followed below.

One assay deals with collagenase. Nature of the assay: Inhibitory activity on collagenase (azocoll assay). The following applies: for Comparative inhibitory activity: [collagenase-inhibitory percentage of TUDCA / that of UDCA]*100. It is filed as biochemical. As to the method:
The inhibitory activities of tauroursodeoxycholic acid (TUDCA) and ursodeoxycholic acid (UDCA) on collagenase were evaluated according to an azocoll assay method. Azocoll, Azo dye-impregnated collagen, is not dissolved in Tris-buffer. […] Therefore, by reacting said test materials with azocoll and then measuring the respective absorbance, the inhibitory activities of said materials on collagenase can be determined.
2% Azocoll solution (200 μl) and a buffer solution (0.01 M Tris-HCl, 1 mM CaCl2, pH 7.8) (150 μl) were respectively added to the 6 test tubes to obtain the solutions (Solution A1 to A6). Each solution (100 μl) obtained by dissolving TUDCA or UDCA in 10% ethanol in various concentrations was added to the solutions A1 to A6, so as to obtain the final concentrations of 1.600 w/v %, 0.533 w/v %, and 0.178 w/v %, respectively. Collagenase (50 μl) having 100 ppm concentration was added to the respective test mixture, which was then stirred in a 37° C. incubator for 18 hours. Each test tube was centrifuged for 5 minutes. The supernatant was separated from each test tube and then added to a 96-well plate. The absorbance at 540 nm was measured by a spectrophotometer and then the activity of the test group was determined from the standard activity curve. The standard activity curve was separately prepared by adding 10, 25, 50, and 100 μl of collagenase to the azocoll solution.
The collagenase-inhibitory ratio of TUDCA to the collagenase-inhibitory ratio of UDCA was determined according to the following formula and the results thereof are shown in Table 1. Comparative inhibitory activity=[Collagenase-inhibitory percentage of TUDCA/Collagenase-inhibitory percentage of UDCA]*100

For the next assay, the system named is S. mutans. Briefly: Antimicrobial activity against S. mutans (growth inhibition, O.D. 600 nm). Format: cell-based, Streptococcus mutans. The procedure: We evaluated antimicrobial activities of TUDCA (PRODOTTI CHIMICI E ALIMENTARI S.p.A. Co., Italy), bamboo salt, xanthorrhiza oil (curcuma xanthorrhiza oil having 22-35% of xanthorrhizol, ‘Curcuma Xanthorrhiza Essential Oil’ extracted from Curcuma Xanthorrhiza Root, Daewoong Bio Inc.), and a mixture thereof, against S. Mutans. Briefly, to each well of a 96-well plate, were added 100 μl of BHI broth (Brain Heart Infusion broth, Sigma-Aldrich) and each test material in two times higher concentration than the concentration shown in the following Table 2. S. mutans was cultured in BHI broth (Brain Heart Infusion broth, Sigma-Aldrich) at 35° C. for 24 hours. Absorbance at 600 nm of the S. mutans-containing culture medium was adjusted to 0.063 to 0.12 and then the resulting culture medium was diluted to 1/500. The diluted S. Mutans-containing culture medium (100 μl) was added to each well of the 96-well plate. The 96-well plate was incubated at 35° C. for 24 hours, followed by measuring the O.D. values at 600 nm with a spectrophotometer for obtaining the respective growth inhibition percentage.
Antimicrobial activities against S. mutans were evaluated using TUDCA in a relatively low concentration. Using the same kinds of TUDCA, bamboo salt, and xanthorrhiza oil, the evaluations of antimicrobial activity were carried out in the same manners as in Example 2.

Turning to `C[C@H](CCC(=O)NCCS(=O)(=O)O)[C@H]1CC[C@H]2[C@@H]3[C@@H](O)C[C@@H]4C[C@H](O)CC[C@]4(C)[C@H]3CC[C@]12C` [TUDCA, tauroursodeoxycholic acid], in the assay on collagenase (at the same concentration, in comparison with UDCA), the “inhibitory activity against collagenase in comparison with UDCA” value was “about two times more strong inhibitory activity against collagenase”. Further, the results for the Comparative inhibitory activity in the assay on collagenase (test material 0.178 w/v %), in the assay on collagenase (test material 0.533 w/v %) and in the assay on collagenase (test material 1.600 w/v %) were 264.75%, 252.56% and 227.17%, respectively. Besides, the Growth inhibition with S. mutans (Table 2, TUDCA 0.5 w/v %) came to 38 ± 16%; in the assay on S. mutans (Table 2, TUDCA 1 w/v %), 51 ± 13%; in the assay on S. mutans (Table 3, TUDCA 0.01 w/v %), 13%. Moreover, the “growth-inhibition activity against S. mutans (in words)” value in the assay on S. mutans (summary of Table 2) is on record as “effective growth-inhibition activity”.
